# Measured values: patent US4950602A, “Inhibition of lactate production by pyruvate adducts” (Cornell Research Foundation, Inc., priority 1987, dated 1990)
# Entries after “also recorded” stand apart in the source; their conditions may differ.
# Key:
# [1] = test system: rats; assay: Effects of RAP in vivo, intravenous administration to rats; set-up: species or system rat; settings: 20 μmole/kg
# Procedure: Animals. Brain tissue was obtained from young adult male Wistar rats (45-50 days old). In one series of experiments, rats that had previously been fed ad libidum were anesthetized with 4% halothane and a V-3 cannula was inserted in the femoral vein. The animals were immobilized by taping them to a lead brick. After they had recovered sufficiently, they were injected with the RAP solution. After initial observation for any side-reactions, the rats were untaped and their wounds were closed under anesthesia. The rats were then placed back in their cages for further observation.
# The animals survived for 3 weeks before being killed.
# [2] = test system: lactate production from D-glucose in rat brain postnuclear supernatant fraction; assay: Lactate production from D-glucose in rat brain postnuclear supernatants; format: biochemical
# Procedure: (§1) FIG. 2 is a graphic presentation of inhibition of lactate production from D-glucose by rat brain postnuclear supernatant fraction and by synaptosoms incubated with RAP. Lactate production was determined for a 20-min incubation at 37° C. Values (expressed as % of the control rate) are mean±SD of 3-6 determinations. The control value was 8.1±0.9 nmol of lactate produced/min/mg protein, *P<0.05, **P<0.03 and ***P<0.005vs. control values.
# (§2) Postnuclear supernatant fraction (containing the glycolytic enzymes) was prepared from rat brain according to the method of Lai et al (1984, supra). Rat brain synaptosomes were prepared according to the method of Lai et al (1980, Biochem. Pharmacol., 29:141-146). Lactate generated by these preparations in the presence of D-glucose was measured with lactate dehydrogenase as described by Lai et al (1984, supra), except that the concentrations of sodium phosphate buffer and nicotinamide used in the medium were respectively 5 and 20 mM. (In some cases where there was a carry over of appreciable RAP to the assay mix, ten times the recommended amount of lactate dehydrogenase was used and the effectiveness of the enzyme in converting lactate to pyruvate was checked by addition of lactate standards to the cuvette after the initial reaction was over).
# [3] = biological target: T1, cytosolic malate dehydrogenase (Rattus norvegicus, UniProt O88989); assay: Rat brain cytosolic (soluble) malate dehydrogenase with RAP; format: biochemical; settings: 20 μM RAP
# T1 construct: following enzymes in rat brain subcellular fractions: α-ketoglutarate, isocitrate and cytosolic malate dehydrogenases; from tissue; host or cells: rat brain subcellular fractions
# Procedure: (§3) Each of the enzymes was assayed by procedures in which change of absorbance at 340 nm due to NADH was followed essentially as described by Bergmeyer (1974, Methods of Enzymatic Analysis, 2nd Eng. Ed., Verlag Chemie Weinheim Academic Press, N.Y.) with the following exceptions. Phosphofructokinase was assayed according to the method of Lai et al (1984, J. Neurochem., 42:438-446). NAD^+ -linked isocitrate dehydrogenase was assayed as described by Lai and Clark (1976, Biochem. J., 154:423-432). Pyruvate and α-ketoglutarate dehydrogenase complexes were respectively assayed according to the methods of Lai and Sheu (1985, J. Neurochem., 45:1861-1868) and Lai and Cooper (1986) (J. Neurochem, 47:1376-1386).
# [4] = biological target: T2, beef heart lactate dehydrogenase (Bos taurus, UniProt Q5E9B1); assay: Inhibition of beef heart lactate dehydrogenase (NADH absorbance at 340 nm); format: biochemical, bovine; settings: for Relative Activity (%) Beef Heart: 0.24 mM pyruvate, 0.1 mM NADH, pH 7.2, 25° C.
# T2 construct: purchased Worthington Biochemical Corporation (Freehold, N.J.); host or cells: beef heart
# Text: Enzymes and enzyme assays. Rabbit muscle glyceraldehyde-3-phosphate dehydrogenase (80 U/mg: ammonium sulfate suspension), rabbit muscle glycerol-3-phosphate dehydrogenase (40 U/mg; ammonium sulfate suspension),beef liver glutamate dehydrogenase (120 U/mg: in 50% glycerol), mitochondrial pig heart malate dehydrogenase (1100 U/mg; in 50% glycerol) and yeast hexokinase (140 U/mg; ammonium sulfate suspension) were purchased from Boehringer Mannheim Corp. (Indianapolis). Beef heart lactate dehydrogenase (280 U/mg) was purchased from Worthington Biochemical Corporation (Freehold, N.J.). Porcine heart L-alanine aminotransferase (130 U/mg), rabbit muscle phosphofructokinase (140 U/mg; ammonium sulfate suspension), bovine heart α-ketoglutarate (8 U/mg) and pyruvate (5 U/mg) dehydrogenase complexes, sodium pyruvate, L-methionine-SR-sulfoximine, DL-vinylglycine, NAD^+, NADH and NAD^+ analogues (3-acetylpyridine, thionicotinamide, and 3-pyridinealdehyde adenine dinucleotides) were purchased from Sigma Chemical Company (St. Louis, Mo.).
# as §3
# (§4) The reaction mixture (1 ml) contained 0.24 mM sodium pyruvate, 0.1 mM
# (§5) NADH, 100 mM potassium phosphate buffer (pH 7.2) and either purified
# (§6) bovine heart lactate dehydrogenase (0.01 U) or rat brain homogenate
# (§7) containing ~0.02 U of lactate dehydrogenase activity; 25° C.
# (§8) Since APADpyruvate adduct and RAP have a tendency to revert to pyruvate
# (§9) they were added to the reaction mixture just prior to addition of enzyme.
# (§10) Because the kinetics obtained with tightbinding inhibitors depends on the
# (§11) order of addition of substrates and inhibitors the enzyme was always adde
# (§12) last. Each value is the average of at least 3 determinations. Each of the […]
# [5] = test system: rat brain lactate dehydrogenase; assay: Inhibition of rat brain lactate dehydrogenase (rat brain homogenate); format: biochemical; settings: for Relative Activity (%) Rat Brain: rat brain homogenate, 0.24 mM pyruvate, 0.1 mM NADH, pH 7.2, 25° C.
# Procedure: as §3, §4, §5, §6, §7, §8, §9, §10, §11, §12
# [6] = test system: phosphofructokinase; assay: Rat brain phosphofructokinase with RAP; format: biochemical; settings: 20 μM RAP
# Procedure: as §3
# [7] = test system: lactate production from D-glucose in synaptosomes; assay: Lactate production from D-glucose in rat brain synaptosomes; format: cell-based
# Procedure: as §1, §2
# [8] = biological target: T3, glutamate dehydrogenase (Rattus norvegicus, UniProt P10860); assay: Rat brain glutamate dehydrogenase with RAP; format: biochemical; settings: 20 μM RAP
# T3 construct: Commercial and rat brain glutamate dehydrogenases; from tissue; host or cells: rat brain
# Procedure: as §3
# T2 sequence (Q5E9B1 whole entry): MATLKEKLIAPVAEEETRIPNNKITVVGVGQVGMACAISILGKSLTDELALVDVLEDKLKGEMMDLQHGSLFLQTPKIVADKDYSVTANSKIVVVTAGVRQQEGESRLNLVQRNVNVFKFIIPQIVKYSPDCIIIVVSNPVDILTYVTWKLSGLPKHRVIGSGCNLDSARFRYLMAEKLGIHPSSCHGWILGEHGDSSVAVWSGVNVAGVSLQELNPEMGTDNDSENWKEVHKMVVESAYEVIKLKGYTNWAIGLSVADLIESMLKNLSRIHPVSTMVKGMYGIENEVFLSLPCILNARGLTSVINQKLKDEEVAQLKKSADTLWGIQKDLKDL
# T3 sequence (P10860 54-558): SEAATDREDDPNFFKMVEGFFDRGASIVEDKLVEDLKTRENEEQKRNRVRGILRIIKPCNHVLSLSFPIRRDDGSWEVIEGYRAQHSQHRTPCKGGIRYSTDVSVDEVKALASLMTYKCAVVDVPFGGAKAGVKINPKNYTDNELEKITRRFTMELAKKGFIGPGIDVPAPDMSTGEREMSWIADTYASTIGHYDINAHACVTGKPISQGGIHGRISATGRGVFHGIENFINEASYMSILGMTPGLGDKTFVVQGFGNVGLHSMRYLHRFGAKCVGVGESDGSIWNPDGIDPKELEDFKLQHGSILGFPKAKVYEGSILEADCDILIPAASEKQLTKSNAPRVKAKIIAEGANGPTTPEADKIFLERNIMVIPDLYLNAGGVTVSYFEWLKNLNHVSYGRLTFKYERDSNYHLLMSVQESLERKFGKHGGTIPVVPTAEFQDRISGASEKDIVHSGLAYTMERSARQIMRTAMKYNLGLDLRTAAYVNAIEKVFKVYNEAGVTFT
# T1 sequence (O88989 whole entry): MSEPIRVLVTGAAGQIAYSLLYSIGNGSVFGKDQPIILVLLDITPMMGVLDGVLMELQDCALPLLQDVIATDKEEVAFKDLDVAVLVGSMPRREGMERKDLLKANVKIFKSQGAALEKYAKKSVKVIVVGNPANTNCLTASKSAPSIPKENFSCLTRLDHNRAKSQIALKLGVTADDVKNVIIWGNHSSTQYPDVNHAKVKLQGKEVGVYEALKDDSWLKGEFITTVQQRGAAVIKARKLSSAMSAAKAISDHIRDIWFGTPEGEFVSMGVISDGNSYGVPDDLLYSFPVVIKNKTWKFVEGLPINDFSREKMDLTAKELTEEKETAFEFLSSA
smiles,measurement,setting,value
"Nc1ncnc2c1ncn2[C@@H]1O[C@H](COP(=O)(O)OP(=O)(O)OC[C@H]2O[C@@H](N3C=CC(CC(=O)C(=O)O)C(C=O)=C3)[C@H](O)[C@@H]2O)[C@@H](O)[C@H]1O (some centres unmarked) [RAP, 3(-4-(reduced 3-pyridinealdehyde-adeninedinucleotide))-pyruvate]",side effects as judged by gross inspection of behavior,[1],no noticeable untoward effects; also recorded: no side effects were noted
same,survival before being killed,[1],3 weeks
same,growth and feeding after injection,[1]; 3 weeks,grew and fed normally
same,gross post-mortem examination,[1]; after 3 weeks,no obvious tissue damage
same,inhibition of lactate production from glucose in rat brain extracts,[2],strongly inhibited
same,concentrations at which lactate production is inhibited in a concentration-dependent manner,"[2]; rat brain postnuclear supernatants, D-glucose",higher than 200 nM
same,IC50,"[2]; rat brain postnuclear supernatants, D-glucose, 20-min incubation at 37° C., true concentration lower since RAP dissociates, read-out: formal ""concentration"" required to inhibit lactate production by 50%",1 to 9 µM
same,effect on rat brain cytosolic (soluble) malate dehydrogenase,[3],little or no effect; also recorded: did not inhibit
same,Ki,"[4]; Ki for the A form, A isomer at the 4 position, taken as half of the mixture, calculated from Table 1 data",1.3 nM
same,Ki,"[4]; Ki, calculated from Table 1 data with Km for NADH 2.5 μM, standard equation for a competitive inhibitor",2.6 nM
same,Relative Activity (%) Beef Heart,[4]; additive 42 nM,79%
same,Relative Activity (%) Beef Heart,[4]; additive 84 nM,58%
same,Relative Activity (%) Beef Heart,[4]; additive 132 nM,40%
same,Relative Activity (%) Beef Heart,[4]; additive 180 nM,29%
same,potency as inhibitor of lactate dehydrogenase relative to the NAD-pyruvate adduct,[4]; from Table 1,~ 1000 fold
same,type of inhibition with respect to pyruvate,[4]; suggested by the 2.4 mM pyruvate finding,noncompetitive inhibitor with respect to pyruvate
same,Relative Activity (%) Rat Brain,[5]; additive 42 nM,80%
same,Relative Activity (%) Rat Brain,[5]; additive 84 nM,56%
same,Relative Activity (%) Rat Brain,[5]; additive 132 nM,43%
same,Relative Activity (%) Rat Brain,[5]; additive 180 nM,30%
same,IC50,"[5]; standard reaction of Table 1, read-out: concentration required to inhibit the standard reaction by 50%",~100 nM
same,effect on rat brain phosphofructokinase,[6],similarly unaffected
same,inhibition of lactate production from glucose in synaptosomes compared with rat brain extracts,[7],less effective
same,inhibition of lactate production in synaptosomes,[7]; initial concentrations of 250-500 μM,15-30%
same,effect on rat brain glutamate dehydrogenase,[8],little or no effect
same,inhibition at 20 µM,[8],≤ 20%
